This is an account of results in PMC4772543, “Immune responses to Mycobacterial heat shock protein 70 accompany self-reactivity to human BiP in rheumatoid arthritis” (Scientific Reports, 2016).

Assay [1] relates to PBMCs of HLA-DR4-positive RA patients. Put plainly: Peptide-induced cytokine secretion from PBMCs (ELISA). Format: cell-based, human. The procedure: Figure 3 MycHSP70_287–306 was a HLA-DR4-restricted epitope in RA. (A) The proliferation of PBMCs in RA patients (Shared epitope (SE) +/+ n = 12, SE +/− n = 22, SE−/− n = 9) and HDs (SE +/− n = 10) in response to MycHSP70_287–306. Proliferation was determined by the incorporation of [3]-H thymidine. The stimulation index (SI) was calculated using the following equation: (median thymidine uptake to an antigen)/(median thymidine uptake in the absence of an antigen). Horizontal line: the median. (B) Amino acid sequences of MycHSP70 (lower lines) and human BiP (upper lines) near the epitopes. Epitope sequences are indicated in bold letters. (C) Relationship between MycHSP70_287–306-induced proliferation and BiP336–355-induced proliferation in RA PBMCs (9 patients with SE +/+ and 14 patients with SE +/−). (D) Blockade of the MycHSP287–306-induced proliferation of PBMCs from HLA-DR4-positive RA patients (n = 6) using an anti-HLA-DR antibody. (E) The secretion of MycHSP287–306-induced IFN-γ from the PBMCs of HLA-DR4-positive HDs (n = 6) and RA patients (n = 8). (F) Blockade of MycHSP287–306-induced cytokine secretion from the PBMCs of HLA-DR4-positive RA patients (n = 6) using an anti-HLA-DR antibody. *p < 0.05, **p < 0.01, ***p < 0.001.
(§1) PBMCs (1 × 10^6/mL) isolated with Ficoll-Paque (GE Healthcare) were cultured in the presence or absence of each peptide (10 μg/mL) with RPMI 1640 medium supplemented with 10% human serum, 2 mM L-glutamine, 100 U/ml penicillin, and 100 μg/ml streptomycin in a humidified incubator at 37 °C, 5% CO2, for 96 hours. Cells were incubated for 18 h following a ^3H-thymidine pulse into each well and harvested using a semiautomated sample harvester. Counts per minute were measured with a scintillation counter. In some experiments, the culture supernatants were collected after a 72-hour incubation and cytokine concentrations were measured in the culture supernatants by a human IFN-γ high sensitivity ELISA kit and human IL-17 high sensitivity ELISA kit (eBioscience). […]
On the technique in general: ELISA stands for enzyme-linked immunosorbent assay.

Assay [2] deals with PBMCs from shared epitope (SE)-positive RA patients. The assay can be described thus: Proliferation of PBMCs from RA patients in response to MycHSP70-derived peptides (3H-thymidine uptake). Format: cell-based, human. Here is the method:
(§2) Figure 3 MycHSP70_287–306 was a HLA-DR4-restricted epitope in RA. (A) The proliferation of PBMCs in RA patients (Shared epitope (SE) +/+ n = 12, SE +/− n = 22, SE−/− n = 9) and HDs (SE +/− n = 10) in response to MycHSP70_287–306. Proliferation was determined by the incorporation of [3]-H thymidine. The stimulation index (SI) was calculated using the following equation: (median thymidine uptake to an antigen)/(median thymidine uptake in the absence of an antigen). Horizontal line: the median. (B) Amino acid sequences of MycHSP70 (lower lines) and human BiP (upper lines) near the epitopes. Epitope sequences are indicated in bold letters. […]
as §1, with “Cells were incubated for 18 h following a ^3H-thymidine pulse into each well and harvested using a semiautomated sample harvester.” left out

Assay [3] has as its system HLA-DR4-positive HD PBMCs. The assay can be described thus: Proliferation of healthy donor PBMCs in response to peptide (3H-thymidine uptake). Conditions: HLA-DR4-positive healthy donors (SE +/− n = 10), peptide 10 μg/mL. In kind it is cell-based, human. Here is the method:
as §2
as §1, with “Cells were incubated for 18 h following a ^3H-thymidine pulse into each well and harvested using a semiautomated sample harvester.” left out

In the next assay the target is T1, HLA-DRB1*0405 (Homo sapiens, UniProt P01903+P01911, A100R/A169T/D86S/F76Y/I96L/K127E/L162R/M171V/N62H/P40V/Q125Y/R42H/S133A/S149N/S66Y/V115G/V209L/W38E).
T1 construct: Soluble DR4 molecules in the supernatant were collected and purified; made in house; host or cells: Drosophila S2 cells
The assay can be described thus: HLA-DR4 peptide binding assay (competition with labelled HA peptide). Conditions: inhibition of labelled HA peptide (0.5 nM) binding to 40 nM purified DR4, 37 °C, 4 h. An excerpt: (§3) Figure 4 HLA-DR4 binding assay. (A) Binding activities between a HLA-DRB1*0401 and 0405 molecule and MycHSP70_287–306. Binding activities were estimated by the inhibition of peroxidase-labeled HA307–318 peptide binding to a HLA-DRB1 molecule. (B) Binding of MycHSP70_287–306 with alanine-substituted peptides to HLA-DRB1*0405 molecules. A MycHSP70_287–306-derived peptide in which an amino residue was substituted by an alanine residue. Inhibitory concentration 50% (IC50) was used as a measure of binding activity. *p < 0.05, **p < 0.01, ***p < 0.001.
(§4) The procedure to assess peptide binding to HLA-DRB1*0401 and 0405 was described in a previous study. In brief, HLA-DRA1B1*0401 and 0405 was cloned and transfected into S2 Drosophila cells. Soluble DR4 molecules in the supernatant were collected and purified through an affinity column coupled with the anti-DR antibody LB3.1. In the peptide binding assay, a 40 nM solution of purified DR4 was incubated at 37 °C for 4 h with the HA307–319 peptide (0.5 nM), which had been labeled at the N terminus with biotin. The indicated concentrations of the peptides were added as competitors to HA peptide binding. […] Bound biotinylated peptides were detected by an incubation with streptavidin-alkaline phosphatase. An automatic microplate reader (Bio-rad 550, Bio-rad) was used to measure optical density.

The next assay concerns the target T2, HLA-DRB1*0401 (Homo sapiens, UniProt P01903+P01911, A100K/A169T/F76Y/I96L/K127E/L162R/M171V/N62H/P40V/Q125Y/R42H/S133A/S149N/S66Y/V115G/V209L/W38E).
T2 construct: Soluble DR4 molecules in the supernatant were collected and purified; made in house; host or cells: Drosophila S2 cells
The description is as above. Conditions: inhibition of labelled HA peptide (0.5 nM) binding to 40 nM purified DR4, 37 °C, 4 h.
Excerpt: as §3, §4

[4] abbreviates: peptide 10 μg/mL, supernatant after 72-hour incubation, ELISA.

With DRTRKPFQSVIADTGISVSE [MycHSP70_287–306], in assay [1] (HLA-DR4-positive RA patients n = 6, anti-HLA DR antibody (L243) 10 μg/mL), the “peptide-induced IFN-γ and IL-17 secretion with anti-HLA-DR antibody” value is listed as “blocked”. In addition, in assay [1] (setting [4]), the “secretion of interferon (IFN)-γ” value is listed as “induced” and the “secretion of interleukin (IL)-17” value is “induced”. The “peptide-induced PBMC proliferation under blockade of HLA-DR” value in assay [2] (HLA-DR4-positive RA patients n = 6, anti-HLA DR monoclonal antibody (L243) 10 μg/mL) is “clearly inhibited”. Moreover, in assay [2] (screen of 43 MycHSP70-derived 20-mer peptides, 10 μg/mL, 96 hours, 3H-thymidine uptake, HLA-DR4-positive RA patients n = 20), the “proliferation of PBMCs, mean stimulation index” value is recorded as “highest proliferative responses”. Besides, in assay [3], the “peptide-induced proliferation of HD PBMCs” value is given as “not observed”. The “binding to HLA-DRB1*0405 molecule” value at HLA-DRB1*0405 was “bound”. Also, the “binding to HLA-DRB1*0401 molecule” value on HLA-DRB1*0401 is reported as “bound”.
